This is an account of results in ChEMBL document CHEMBL1153197, “Synthetic studies and pharmacological evaluations on the MDMA ('Ecstasy') antagonist nantenine” (Bioorg Med Chem Lett, 2010).

Calls of active or inactive are those of the source. The calls are words filed in the database; no cut-off is given here. Some results are limits rather than exact numbers.

Series [1] addresses 5-hydroxytryptamine receptor 1B (Homo sapiens, UniProt P28222). The experiment in a line: Displacement of [3H]GR127543 from human 5HT1B receptor.
Series [2] concerns the target 5-hydroxytryptamine receptor 1D (Homo sapiens, UniProt P28221). The experiment in a line: Displacement of [3H]GR127543 from human 5HT1D receptor.
Series [3] has as its target 5-hydroxytryptamine receptor 1E (Homo sapiens, UniProt P28566). The series is described as follows: Displacement of [3H]5-HT from human 5HT1E receptor. A general note: Loss of bound radioactivity is the signal in a displacement assay; it reports binding, not function.
Series [4] addresses 5-hydroxytryptamine receptor 2A (Homo sapiens, UniProt P28223). The series is described as follows: Displacement of [3H]Ketanserin from human 5HT2A receptor.
The target of series [5] is 5-hydroxytryptamine receptor 2B (Homo sapiens, UniProt P41595). The experiment in a line: Displacement of [3H]LSD from human 5HT2B receptor.
Series [6] concerns the target 5-hydroxytryptamine receptor 2C (Homo sapiens, UniProt P28335). The experiment in a line: Displacement of [3H]Mesulergine from human 5HT2C receptor.
Series [7] addresses 5-hydroxytryptamine receptor 3A (Homo sapiens, UniProt P46098). The series is described as follows: Displacement of [3H]LY278584 from human 5HT3 receptor.
The target in series [8] is 5-hydroxytryptamine receptor 5A (Homo sapiens, UniProt P47898). The series is described as follows: Displacement of [3H]LSD from human 5HT5A receptor.
The target in series [9] is 5-hydroxytryptamine receptor 6 (Homo sapiens, UniProt P50406). The experiment in a line: Displacement of [3H]LSD from human 5HT6 receptor.
The target of series [10] is 5-hydroxytryptamine receptor 7 (Homo sapiens, UniProt P34969). The experiment in a line: Displacement of [3H]LSD from human 5HT7 receptor.
Series [11] deals with Alpha-1A adrenergic receptor (Homo sapiens, UniProt P35348). The series is described as follows: Displacement of [3H]Prazosin from human adrenergic alpha1A receptor.
Series [12] addresses Alpha-1B adrenergic receptor (Homo sapiens, UniProt P35368). The experiment in a line: Displacement of [3H]Prazosin from human adrenergic Alpha-1B receptor.
Series [13] concerns the target Alpha-1D adrenergic receptor (Homo sapiens, UniProt P25100). The series is described as follows: Binding affinity to human adrenergic Alpha-1D receptor.
In series [14] the target is Alpha-2A adrenergic receptor (Homo sapiens, UniProt P08913). The experiment in a line: Displacement of [3H]Clonidine from human adrenergic alpha2A receptor.
Alpha-2A adrenergic receptor, sequence (P08913 whole entry): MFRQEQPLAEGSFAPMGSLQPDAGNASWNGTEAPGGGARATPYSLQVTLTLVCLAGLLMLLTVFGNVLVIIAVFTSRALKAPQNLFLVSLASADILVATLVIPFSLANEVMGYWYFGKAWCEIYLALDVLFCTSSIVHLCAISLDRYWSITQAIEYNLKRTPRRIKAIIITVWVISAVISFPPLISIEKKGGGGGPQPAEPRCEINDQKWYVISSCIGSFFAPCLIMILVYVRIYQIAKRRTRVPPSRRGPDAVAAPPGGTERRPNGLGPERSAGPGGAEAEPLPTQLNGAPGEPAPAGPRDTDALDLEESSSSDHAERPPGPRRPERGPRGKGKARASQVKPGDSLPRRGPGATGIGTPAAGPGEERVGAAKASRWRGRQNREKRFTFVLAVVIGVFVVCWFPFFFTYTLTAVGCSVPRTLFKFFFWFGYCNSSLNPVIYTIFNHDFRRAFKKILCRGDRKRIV
Series [15] deals with Alpha-2B adrenergic receptor (Homo sapiens, UniProt P18089). The experiment in a line: Displacement of [3H]Clonidine from human adrenergic alpha2B receptor.
Series [16] concerns the target Alpha-2C adrenergic receptor (Homo sapiens, UniProt P18825). The series is described as follows: Displacement of [3H]Clonidine from human adrenergic Alpha-2C receptor.
In series [17] the target is Beta-1 adrenergic receptor (Homo sapiens, UniProt P08588). The experiment in a line: Displacement of [125I]Iodopindolol from human adrenergic beta-1 receptor.
Series [18] deals with Beta-2 adrenergic receptor (Homo sapiens, UniProt P07550). The series is described as follows: Displacement of [125I]Iodopindolol from human adrenergic beta2 receptor.
Beta-2 adrenergic receptor, sequence (P07550 whole entry): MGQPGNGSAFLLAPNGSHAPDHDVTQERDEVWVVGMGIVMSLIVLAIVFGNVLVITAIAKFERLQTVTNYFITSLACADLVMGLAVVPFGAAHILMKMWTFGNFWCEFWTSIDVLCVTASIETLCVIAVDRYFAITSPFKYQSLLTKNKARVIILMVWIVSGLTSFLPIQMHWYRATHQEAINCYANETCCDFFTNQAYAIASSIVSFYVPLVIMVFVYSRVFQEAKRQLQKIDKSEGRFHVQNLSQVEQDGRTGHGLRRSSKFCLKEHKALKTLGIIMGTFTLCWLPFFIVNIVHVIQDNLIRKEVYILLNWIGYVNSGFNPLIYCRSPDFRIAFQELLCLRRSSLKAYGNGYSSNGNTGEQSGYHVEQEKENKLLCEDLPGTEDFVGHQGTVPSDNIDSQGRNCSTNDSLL
Series [19] addresses Beta-3 adrenergic receptor (Homo sapiens, UniProt P13945). The experiment in a line: Displacement of [125I]Iodopindolol from human adrenergic beta3 receptor.
Another series addresses D(1A) dopamine receptor (Homo sapiens, UniProt P21728). The experiment in a line: Displacement of [3H]SCH233930 from human dopamine D1 receptor.
The next series addresses D(2) dopamine receptor (Homo sapiens, UniProt P14416). The series is described as follows: Displacement of [3H]N-methylspiperone from human dopamine D2 receptor.
The target of the next series is D(3) dopamine receptor (Homo sapiens, UniProt P35462). The experiment in a line: Displacement of [3H]N-methylspiperone from human dopamine D3 receptor.
The target of another series is D(4) dopamine receptor (Homo sapiens, UniProt P21917). The series is described as follows: Displacement of [3H]N-methylspiperone from human dopamine D4 receptor.
D(4) dopamine receptor, sequence (P21917 whole entry): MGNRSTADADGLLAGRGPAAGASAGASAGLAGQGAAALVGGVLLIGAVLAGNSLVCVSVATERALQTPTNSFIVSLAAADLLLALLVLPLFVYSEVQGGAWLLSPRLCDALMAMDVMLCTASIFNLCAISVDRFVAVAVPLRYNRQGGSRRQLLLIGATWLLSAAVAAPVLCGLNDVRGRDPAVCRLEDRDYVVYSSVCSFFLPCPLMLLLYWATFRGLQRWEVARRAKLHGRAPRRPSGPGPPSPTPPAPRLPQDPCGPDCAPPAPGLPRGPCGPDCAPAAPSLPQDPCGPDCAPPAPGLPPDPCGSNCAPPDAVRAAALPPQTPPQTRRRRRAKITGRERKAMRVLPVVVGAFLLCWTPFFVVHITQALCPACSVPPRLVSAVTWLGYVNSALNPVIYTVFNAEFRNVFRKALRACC
In a further series the target is D(1B) dopamine receptor (Homo sapiens, UniProt P21918). The experiment in a line: Displacement of [3H]SCH233930 from human dopamine D5 receptor.
Series [20] concerns the target Sodium-dependent dopamine transporter (Homo sapiens, UniProt Q01959). The experiment in a line: Displacement of [3H]WIN-35428 from human DAT.
Series [21] has as its target Sodium-dependent serotonin transporter (Homo sapiens, UniProt P31645). The series is described as follows: Displacement of [3H]Citalopram from human SERT.
In series [22] the target is Sodium-dependent noradrenaline transporter (Homo sapiens, UniProt P23975). The experiment in a line: Displacement of [3H]Nisoxetine from human NET.
The target in series [23] is Delta-type opioid receptor (Homo sapiens, UniProt P41143). The series is described as follows: Displacement of [3H]DADLE from human DOR.
Series [24] has as its target Kappa-type opioid receptor (Homo sapiens, UniProt P41145). The series is described as follows: Displacement of [3H]U69593 from human KOR.
Another series concerns the target Mu-type opioid receptor (Homo sapiens, UniProt P35372). The series is described as follows: Displacement of [3H]DAMGO from human MOR.
The target in a further series is Histamine H1 receptor (Homo sapiens, UniProt P35367). The experiment in a line: Displacement of [3H]Pyrilamine from human histamine H1 receptor.
For another series, the target named is Histamine H2 receptor (Homo sapiens, UniProt P25021). The experiment in a line: Displacement of [3H]Tiotidine from human histamine H2 receptor.
For another series, the target named is Histamine H3 receptor (Homo sapiens, UniProt Q9Y5N1). The experiment in a line: Displacement of [3H]alpha-methylhistamine from human histamine H3 receptor.
A further series has as its target Histamine H4 receptor (Homo sapiens, UniProt Q9H3N8). The series is described as follows: Displacement of [3H]Histamine from human histamine H4 receptor.
Series [25] deals with Muscarinic acetylcholine receptor M1 (Homo sapiens, UniProt P11229). The experiment in a line: Displacement of [3H]QNB from human muscarinic M1 receptor.
For series [26], the target named is Muscarinic acetylcholine receptor M2 (Homo sapiens, UniProt P08172). The series is described as follows: Displacement of [3H]QNB from human muscarinic M2 receptor.
Muscarinic acetylcholine receptor M2, sequence (P08172 whole entry): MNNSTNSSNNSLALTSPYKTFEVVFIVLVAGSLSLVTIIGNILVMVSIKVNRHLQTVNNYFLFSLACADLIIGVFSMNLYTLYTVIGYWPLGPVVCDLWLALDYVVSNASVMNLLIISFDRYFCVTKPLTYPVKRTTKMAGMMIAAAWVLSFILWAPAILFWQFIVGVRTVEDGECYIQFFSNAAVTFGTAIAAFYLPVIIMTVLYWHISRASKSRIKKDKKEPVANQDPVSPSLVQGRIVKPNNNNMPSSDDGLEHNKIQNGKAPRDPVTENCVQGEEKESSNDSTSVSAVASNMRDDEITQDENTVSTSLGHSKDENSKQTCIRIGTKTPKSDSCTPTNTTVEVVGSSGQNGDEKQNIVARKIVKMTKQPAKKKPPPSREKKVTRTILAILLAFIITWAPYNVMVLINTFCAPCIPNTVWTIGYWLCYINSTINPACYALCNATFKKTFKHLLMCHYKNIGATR
Series [27] deals with Muscarinic acetylcholine receptor M3 (Homo sapiens, UniProt P20309). The series is described as follows: Displacement of [3H]QNB from human muscarinic M3 receptor.
Series [28] addresses Muscarinic acetylcholine receptor M4 (Homo sapiens, UniProt P08173). The series is described as follows: Displacement of [3H]QNB from human muscarinic M4 receptor.
Series [29] is described as follows: Displacement of [3H]DTG from human sigma 2 receptor.
Series [30] concerns Rattus norvegicus. The series is described as follows: Inhibition of MDMA-induced behavioral suppression in rat assessed as earning of 20 food pellets at 0.3 mg/kg, ip administered 15 mins before MDMA challenge by food-reinforced operant task method. The format is functional, organism-based. Details: dose 0.3 mg/kg.
For series [31], the system named is Rattus norvegicus. The experiment in a line: Toxicity in rat at 1 mg/kg, ip after 15 mins. The series is classed as organism-based. Details: dose 1 mg/kg, route intraperitoneal. Conditions: in vivo, 0.25 h.
Series [32] concerns Rattus norvegicus. The experiment in a line: Inhibition of MDMA-induced behavioral suppression in rat assessed as earning of 20 food pellets at 0.1 mg/kg, ip administered 15 mins before MDMA challenge by food-reinforced operant task method. Details: dose 0.1 mg/kg. The format is functional, organism-based.

5-hydroxytryptamine receptor 1D, sequence (P28221 whole entry): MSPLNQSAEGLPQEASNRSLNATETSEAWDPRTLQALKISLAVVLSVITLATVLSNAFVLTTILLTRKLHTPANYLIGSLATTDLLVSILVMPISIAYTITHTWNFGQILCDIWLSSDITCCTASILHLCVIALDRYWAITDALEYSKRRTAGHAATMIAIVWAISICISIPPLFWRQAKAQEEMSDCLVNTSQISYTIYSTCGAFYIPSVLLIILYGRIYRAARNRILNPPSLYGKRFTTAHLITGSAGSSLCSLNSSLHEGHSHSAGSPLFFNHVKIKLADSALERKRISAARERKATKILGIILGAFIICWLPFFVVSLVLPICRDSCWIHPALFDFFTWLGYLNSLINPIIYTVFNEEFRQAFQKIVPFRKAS
D(2) dopamine receptor, sequence (P14416 whole entry): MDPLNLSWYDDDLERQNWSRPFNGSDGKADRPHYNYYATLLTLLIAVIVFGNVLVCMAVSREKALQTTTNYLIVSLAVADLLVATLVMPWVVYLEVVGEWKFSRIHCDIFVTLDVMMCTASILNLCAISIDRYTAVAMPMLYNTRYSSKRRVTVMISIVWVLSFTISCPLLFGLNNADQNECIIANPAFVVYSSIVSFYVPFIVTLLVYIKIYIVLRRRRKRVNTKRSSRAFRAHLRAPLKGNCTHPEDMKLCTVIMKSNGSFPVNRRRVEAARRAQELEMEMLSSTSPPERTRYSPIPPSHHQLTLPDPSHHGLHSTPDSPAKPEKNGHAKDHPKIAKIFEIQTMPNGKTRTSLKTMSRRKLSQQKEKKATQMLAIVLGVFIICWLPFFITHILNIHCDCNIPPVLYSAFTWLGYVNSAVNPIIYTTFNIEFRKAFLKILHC
5-hydroxytryptamine receptor 1E, sequence (P28566 whole entry): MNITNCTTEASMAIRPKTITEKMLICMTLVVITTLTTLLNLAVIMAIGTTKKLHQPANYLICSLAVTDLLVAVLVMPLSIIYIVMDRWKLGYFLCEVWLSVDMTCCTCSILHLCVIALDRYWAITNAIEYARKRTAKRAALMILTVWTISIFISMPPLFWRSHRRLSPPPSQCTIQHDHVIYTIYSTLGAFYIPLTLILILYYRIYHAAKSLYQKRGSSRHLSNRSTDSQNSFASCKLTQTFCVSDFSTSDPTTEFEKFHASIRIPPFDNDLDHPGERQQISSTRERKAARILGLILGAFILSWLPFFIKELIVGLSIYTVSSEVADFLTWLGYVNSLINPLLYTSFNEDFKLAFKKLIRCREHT
Histamine H4 receptor, sequence (Q9H3N8 whole entry): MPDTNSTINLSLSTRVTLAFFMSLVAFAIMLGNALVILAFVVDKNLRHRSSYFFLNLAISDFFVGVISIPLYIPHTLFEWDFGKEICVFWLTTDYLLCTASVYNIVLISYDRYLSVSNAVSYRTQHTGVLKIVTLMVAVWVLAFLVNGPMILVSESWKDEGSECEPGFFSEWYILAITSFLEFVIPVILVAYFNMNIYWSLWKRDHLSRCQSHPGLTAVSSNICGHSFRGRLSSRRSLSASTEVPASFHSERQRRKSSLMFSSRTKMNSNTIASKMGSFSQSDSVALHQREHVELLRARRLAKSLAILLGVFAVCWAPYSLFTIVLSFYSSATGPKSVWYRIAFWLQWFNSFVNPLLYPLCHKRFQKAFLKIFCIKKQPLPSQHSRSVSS
Alpha-1B adrenergic receptor, sequence (P35368 whole entry): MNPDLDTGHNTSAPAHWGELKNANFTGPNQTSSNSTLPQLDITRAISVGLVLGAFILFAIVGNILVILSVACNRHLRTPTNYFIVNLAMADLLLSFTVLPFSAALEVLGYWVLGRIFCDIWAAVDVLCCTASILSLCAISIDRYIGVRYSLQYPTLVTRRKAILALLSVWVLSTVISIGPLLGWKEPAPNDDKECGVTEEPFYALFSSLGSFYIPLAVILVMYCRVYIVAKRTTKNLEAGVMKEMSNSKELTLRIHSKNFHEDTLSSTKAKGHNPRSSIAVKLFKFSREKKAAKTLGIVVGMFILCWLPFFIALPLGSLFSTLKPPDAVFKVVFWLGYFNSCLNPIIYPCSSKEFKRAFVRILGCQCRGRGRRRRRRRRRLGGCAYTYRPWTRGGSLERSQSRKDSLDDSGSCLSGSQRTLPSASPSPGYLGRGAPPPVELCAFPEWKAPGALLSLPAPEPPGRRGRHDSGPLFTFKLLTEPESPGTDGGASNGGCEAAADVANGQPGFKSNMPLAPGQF
Alpha-1D adrenergic receptor, sequence (P25100 whole entry): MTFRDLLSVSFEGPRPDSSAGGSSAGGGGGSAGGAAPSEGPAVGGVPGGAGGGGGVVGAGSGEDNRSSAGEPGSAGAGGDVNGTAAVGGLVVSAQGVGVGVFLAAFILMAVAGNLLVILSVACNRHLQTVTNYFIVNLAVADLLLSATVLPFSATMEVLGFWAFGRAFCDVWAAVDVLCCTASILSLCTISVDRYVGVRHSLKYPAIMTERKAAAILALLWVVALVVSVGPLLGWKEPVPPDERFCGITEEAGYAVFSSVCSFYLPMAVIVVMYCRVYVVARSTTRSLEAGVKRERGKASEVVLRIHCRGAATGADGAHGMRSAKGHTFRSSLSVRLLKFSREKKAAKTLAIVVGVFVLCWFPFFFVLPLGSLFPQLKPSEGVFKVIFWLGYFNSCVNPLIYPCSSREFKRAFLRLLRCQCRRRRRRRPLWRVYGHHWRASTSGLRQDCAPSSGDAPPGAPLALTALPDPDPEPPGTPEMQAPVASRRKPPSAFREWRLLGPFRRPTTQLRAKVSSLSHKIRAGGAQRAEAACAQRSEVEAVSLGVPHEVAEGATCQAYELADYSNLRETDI
5-hydroxytryptamine receptor 2A, sequence (P28223 whole entry): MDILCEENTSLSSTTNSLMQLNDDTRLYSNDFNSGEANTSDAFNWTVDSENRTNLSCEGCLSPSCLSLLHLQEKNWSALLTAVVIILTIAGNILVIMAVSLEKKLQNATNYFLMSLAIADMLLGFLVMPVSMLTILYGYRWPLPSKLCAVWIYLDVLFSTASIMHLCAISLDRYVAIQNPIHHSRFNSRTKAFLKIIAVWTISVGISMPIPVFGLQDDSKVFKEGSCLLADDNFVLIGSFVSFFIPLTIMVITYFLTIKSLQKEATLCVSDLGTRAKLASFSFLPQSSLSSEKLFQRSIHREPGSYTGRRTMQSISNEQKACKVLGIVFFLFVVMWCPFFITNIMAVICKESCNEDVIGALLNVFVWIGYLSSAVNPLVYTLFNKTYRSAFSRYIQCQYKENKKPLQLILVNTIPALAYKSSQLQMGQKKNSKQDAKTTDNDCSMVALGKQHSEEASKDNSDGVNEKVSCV

The Ki is a dissociation constant, usually derived from enzyme kinetics or from competition with a known ligand. Consider `COc1cc2c3c(c1OC)-c1cc4c(cc1CC3N(C)CC2)OCO4` (racemic) [NANTENINE], for which the Ki in series [1] was 100 nM; in series [2], 49 nM; in [3], more than 10000 nM; in [4], 832 nM; in series [5], 543 nM; in [6], 1070 nM. Further, the Ki in [7] is more than 10000 nM; in series [8], 2220 nM; in [9] it was 257 nM; in series [10] it was 67 nM; in series [11], 2 nM; in [12] it was 1190 nM. The inhibition constant Ki in series [13] was 340 nM; in series [14], 1290 nM; in [15], 252 nM; in series [16], 181 nM; in series [17], 8570 nM; in [18] it was more than 10000 nM. Moreover, the Ki in [19] was more than 10000 nM; at D(1A) dopamine receptor it was 895 nM; at D(2) dopamine receptor it was 858 nM; on D(3) dopamine receptor, 309 nM; at D(4) dopamine receptor, 262 nM; at D(1B) dopamine receptor it was 2400 nM. For the same compound, the Ki in series [20] was more than 10000 nM; in [21], 244 nM; in series [22], more than 10000 nM; in series [23], more than 10000 nM; in series [24] it was more than 10000 nM; on Mu-type opioid receptor it was 7260 nM. Also, the Ki on Histamine H1 receptor was more than 10000 nM; at Histamine H2 receptor, 672 nM; at Histamine H3 receptor it was more than 10000 nM; at Histamine H4 receptor it was more than 10000 nM; in [25], more than 10000 nM; in [26], more than 10000 nM. In addition, the Ki in series [27], in series [28] and in series [29] was more than 10000 nM in each case.

In the case of `O=C(c1ccc(F)cc1)C1CCN(CCn2c(=O)[nH]c3ccccc3c2=O)CC1` [KETANSERIN], the result with Rattus norvegicus [30] and with Rattus norvegicus [32] was Active. In addition, in the series with Rattus norvegicus [31], the Activity result is listed as “Toxic”.
